The source of these data is ChEMBL document CHEMBL1127884, “Inhibition of stromelysin-1 (MMP-3) by peptidyl phosphinic acids” (Bioorg Med Chem Lett, 1994).

The target of assay [1] is T1, Interstitial collagenase (Homo sapiens, UniProt P03956).
T1 sequence (P03956 whole entry): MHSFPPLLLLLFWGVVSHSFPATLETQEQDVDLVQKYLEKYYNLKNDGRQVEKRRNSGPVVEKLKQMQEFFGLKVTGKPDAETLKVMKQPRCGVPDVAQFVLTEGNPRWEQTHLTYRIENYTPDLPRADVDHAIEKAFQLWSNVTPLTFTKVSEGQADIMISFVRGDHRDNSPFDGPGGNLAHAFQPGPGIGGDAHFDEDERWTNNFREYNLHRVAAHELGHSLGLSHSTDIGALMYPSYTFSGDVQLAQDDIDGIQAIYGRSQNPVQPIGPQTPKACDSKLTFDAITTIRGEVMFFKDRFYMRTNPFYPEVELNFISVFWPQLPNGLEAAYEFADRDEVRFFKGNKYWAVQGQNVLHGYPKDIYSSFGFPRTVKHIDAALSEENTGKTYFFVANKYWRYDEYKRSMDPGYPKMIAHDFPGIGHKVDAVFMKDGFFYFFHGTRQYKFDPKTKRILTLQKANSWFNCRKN
In words: In vitro inhibition of human fibroblast collagenase.

Assay [2] has as its target T2, Stromelysin-1 (Homo sapiens, UniProt P08254). In words: In vitro inhibition of human recombinant stromelysin-1.
Target sequence in this assay (P08254 whole entry): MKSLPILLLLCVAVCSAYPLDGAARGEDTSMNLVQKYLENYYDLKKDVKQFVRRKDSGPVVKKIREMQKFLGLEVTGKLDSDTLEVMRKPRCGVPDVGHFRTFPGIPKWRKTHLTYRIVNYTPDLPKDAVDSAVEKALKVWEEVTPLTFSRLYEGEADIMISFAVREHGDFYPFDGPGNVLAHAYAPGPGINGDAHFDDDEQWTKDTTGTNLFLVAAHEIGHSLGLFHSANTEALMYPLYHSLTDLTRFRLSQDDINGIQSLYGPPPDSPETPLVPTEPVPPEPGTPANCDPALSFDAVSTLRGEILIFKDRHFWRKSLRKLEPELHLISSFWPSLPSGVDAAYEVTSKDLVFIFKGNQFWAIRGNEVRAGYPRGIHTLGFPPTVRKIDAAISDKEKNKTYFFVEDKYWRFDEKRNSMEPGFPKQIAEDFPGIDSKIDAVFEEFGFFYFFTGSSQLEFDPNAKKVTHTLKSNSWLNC
The target of assay [3] is T3, Interstitial collagenase (Homo sapiens) (UniProt P03956).
T3 sequence (whole entry): T1 sequence (P03956 whole entry)
In words: In vitro inhibition of human fibroblast collagenase at a 10 uM.

For assay [4], the target named is T2, Stromelysin-1. As to the kind of experiment: In vitro inhibition of human recombinant stromelysin-1 at a concentration of 5 uM.
Target sequence in this assay (P08254 100-477 limits assumed): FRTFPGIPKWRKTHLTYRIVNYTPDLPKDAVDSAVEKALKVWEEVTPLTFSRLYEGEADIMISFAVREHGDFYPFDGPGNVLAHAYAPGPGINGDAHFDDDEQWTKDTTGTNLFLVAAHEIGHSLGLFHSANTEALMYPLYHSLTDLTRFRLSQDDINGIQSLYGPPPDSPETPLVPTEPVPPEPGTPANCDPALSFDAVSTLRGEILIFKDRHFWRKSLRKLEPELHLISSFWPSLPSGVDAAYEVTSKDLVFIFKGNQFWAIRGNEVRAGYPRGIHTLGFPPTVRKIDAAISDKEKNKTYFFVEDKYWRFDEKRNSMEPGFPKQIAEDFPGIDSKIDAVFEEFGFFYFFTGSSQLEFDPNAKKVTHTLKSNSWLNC

SMILES strings stand for the structures.

One may read the Ki as a dissociation constant, usually derived from enzyme kinetics or from competition with a known ligand. For the molecule `CC(=O)N1CCCC1C(=O)N[C@@H](C)C(=O)N[C@@H](C)P(=O)(O)CC(CCc1ccccc1)C(=O)N[C@@H](CC(C)C)C(=O)Nc1ccccc1` (stereo partly specified), the results for the Ki in assay [1] and in assay [2] were 2900 nM and 6.1 nM, respectively.

The inhibition is how much of the control response was suppressed. In turn, `CC(C)C[C@H](NC(=O)C(CCc1ccccc1)CP(=O)(O)CNC(=O)CNC(=O)OCc1ccccc1)C(=O)Nc1ccccc1` (stereo partly specified) had an inhibition in assay [3] of 4%. Moreover, in assay [2], the Ki stood at 1400 nM.

In assay [3], `CC(C)CC(NC(=O)C(CCc1ccccc1)CP(=O)(O)CNC(=O)CN1C(=O)c2ccccc2C1=O)C(=O)Nc1ccccc1` (stereo unspecified) showed an inhibition of 14%. Also, the inhibitory constant (Ki) in assay [2] was 410 nM.

`CC(C)C[C@H](NC(=O)C(CCc1ccccc1)CP(=O)(O)[C@H](C)NC(=O)CN1C(=O)c2ccccc2C1=O)C(=O)Nc1ccccc1` (stereo partly specified): the inhibition in assay [3] was 0%. Further, the inhibitory constant (Ki) in assay [2] is 2400 nM.

`CC(C)C[C@H](NC(=O)C(CCc1ccccc1)CP(=O)(O)CNC(=O)[C@H](CC(N)=O)NC(=O)OCc1ccccc1)C(=O)Nc1ccccc1` (stereo partly specified) came in with an inhibition in assay [3] of 14%. The inhibitory constant (Ki) in assay [2] is 600 nM.

Molecule `CC(=O)N[C@@H](C)C(=O)N[C@@H](C)C(=O)N[C@@H](C)P(=O)(O)CC(CCc1ccccc1)C(=O)N[C@@H](CC(C)C)C(=O)Nc1ccccc1` (stereo partly specified) came in with an inhibition in assay [3] of 32%. Further, in assay [2], the inhibitory constant (Ki) turned out to be 42 nM.

On to `CCCC[C@H](NC(=O)OCc1ccccc1)C(=O)NCP(=O)(O)CC(CCc1ccccc1)C(=O)N[C@@H](CC(C)C)C(=O)Nc1ccccc1` (stereo partly specified), for which the inhibition in assay [3] is 0%. Also, the inhibition constant Ki in assay [2] stood at 1300 nM.

On to `CC(=O)N1CCCC1C(=O)N[C@@H](C)C(=O)NCP(=O)(O)CC(CCc1ccccc1)C(=O)N[C@@H](CC(C)C)C(=O)Nc1ccccc1` (stereo partly specified), for which the inhibition in assay [3] was found to be 60%. Also, the inhibitory constant (Ki) in assay [2] was found to be 15 nM.

In the case of `CC(C)C[C@H](NC(=O)C(CCc1ccccc1)CP(=O)(O)CNC(=O)[C@H](Cc1c[nH]cn1)NC(=O)OCc1ccccc1)C(=O)Nc1ccccc1` (stereo partly specified), the inhibition in assay [3] amounted to 9%. The Ki in assay [2] was 210 nM.

For the molecule `CC(C)C[C@H](NC(=O)C(CCc1ccccc1)CP(=O)(O)CNC(=O)[C@H](C)NC(=O)C1CCCN1C(=O)c1ccccc1)C(=O)Nc1ccccc1` (stereo partly specified), the inhibition in assay [3] was found to be 39%. In addition, in assay [2], the inhibitory constant (Ki) came out at 24 nM.

As to `CC(C)C[C@H](NC(=O)C(CCc1ccccc1)CP(=O)(O)CNC(=O)[C@H](Cc1ccc(O)cc1)NC(=O)OCc1ccccc1)C(=O)Nc1ccccc1` (stereo partly specified), the inhibition in assay [3] is 0%. Also, the Ki in assay [2] worked out at 560 nM.

`CC(C)C[C@H](NC(=O)C(CCc1ccccc1)CP(=O)(O)[C@H](C)NCc1ccccc1)C(=O)Nc1ccccc1` (stereo partly specified) yielded an inhibition in assay [3] of 7%. Also, the inhibitory constant (Ki) in assay [2] stood at 1900 nM.

In the case of `CC(C)C[C@H](NC(=O)C(CCc1ccccc1)CP(=O)(O)CNCc1ccccc1)C(=O)Nc1ccccc1` (stereo partly specified), in assay [3], the inhibition is 0%. For the same molecule, the Ki in assay [2] was 1900 nM.

For the molecule `CC(=O)N1CCCC1C(=O)N[C@@H](C)P(=O)(O)CC(CCc1ccccc1)C(=O)N[C@@H](CC(C)C)C(=O)Nc1ccccc1` (stereo partly specified), the inhibition in assay [3] came out at 0%; in assay [4], 57%.

The molecule `CC(=O)N[C@@H](C)C(=O)N[C@@H](C)P(=O)(O)CC(CCc1ccccc1)C(=O)N[C@@H](CC(C)C)C(=O)Nc1ccccc1` (stereo partly specified) gave an inhibition in assay [3] of 0%. For the same molecule, in assay [2], the inhibitory constant (Ki) came out at 340 nM.

For `CC(C)C[C@H](NC(=O)C(CCc1ccccc1)CP(=O)(O)[C@H](C)NC(=O)OCc1ccccc1)C(=O)Nc1ccccc1` (stereo partly specified), the Ki in assay [1] came to 7500 nM; in assay [2], 330 nM.

`CC(C)C[C@H](NC(=O)C(CCc1ccccc1)CP(=O)(O)CNC(=O)[C@H](CCCCN)NC(=O)OCc1ccccc1)C(=O)Nc1ccccc1` (stereo partly specified): in assay [3], the inhibition was 18%. Further, the Ki in assay [2] came out at 4600 nM.

`CC(C)C[C@H](NC(=O)C(CCc1ccccc1)CP(=O)(O)CNC(=O)[C@H](CCC(=O)O)NC(=O)OCc1ccccc1)C(=O)Nc1ccccc1` (stereo partly specified): the inhibition in assay [3] stood at 12%. Also, the Ki in assay [2] amounted to 370 nM.

In turn, `CC(C)C[C@H](NC(=O)C(CCc1ccccc1)CP(=O)(O)CNC(=O)[C@H](C)NC(=O)OCc1ccccc1)C(=O)Nc1ccccc1` (stereo partly specified) had an inhibition in assay [3] of 0%. The inhibitory constant (Ki) in assay [2] is 280 nM.

Take `CC(C)C[C@H](NC(=O)C(CCc1ccccc1)CP(=O)(O)CNC(=O)Cc1ccccc1)C(=O)Nc1ccccc1` (stereo partly specified): in assay [3], the inhibition was found to be 0%. Also, the Ki in assay [2] came to 940 nM.

Regarding `CC(C)C[C@H](NC(=O)C(CCc1ccccc1)CP(=O)(O)CNC(=O)[C@H](Cc1ccccc1)NC(=O)OCc1ccccc1)C(=O)Nc1ccccc1` (stereo partly specified), the inhibition in assay [3] amounted to 4%. Further, in assay [2], the Ki was found to be 710 nM.

On to `CC(C)C[C@H](NC(=O)C(CCc1ccccc1)CP(=O)(O)[C@H](C)NC(=O)[C@H](C)NC(=O)C1CCCN1C(=O)c1ccccc1)C(=O)Nc1ccccc1` (stereo partly specified), for which the inhibition constant (Ki) in assay [1] is 5100 nM; in assay [2], 20 nM.

On to `CC(C)C[C@H](NC(=O)C(CCc1ccccc1)CP(=O)(O)CNC(=O)OCc1ccccc1)C(=O)Nc1ccccc1` (stereo partly specified), for which the results for the inhibitory constant (Ki) in assay [1] and in assay [2] were 15900 nM and 280 nM, respectively.
